Test results from publication PMC8911579, “(−)-Naringenin 4′,7-dimethyl Ether Isolated from Nardostachys jatamansi Relieves Pain through Inhibition of Multiple Channels” (Molecules, 2022).

How the values were obtained:
[1] = test system: mustard oil-induced colorectal pain; assay: mustard oil-induced mouse colorectal pain model; type: in vivo, C57BL/6 mice; conditions: 30 min observation
Method: The dose-dependent relief of somatic pain in the formalin model prompted us to ask whether it could attenuate the visceral pain. Thereby, we constructed the mustard oil-induced mouse colorectal pain model as previously described. […] As those observed in intraplantar formalin-induced pain, (−)-NRG-DM dose dependently relieved intracolonic mustard oil-caused writhing (Figure 3A). After intraperitoneal application of 30 mg/kg and 50 mg/kg (−)-NRG-DM, the writhing number reduced by approximately 60% and 80%, respectively (Figure 3B).
Male C57BL/6 mice, weighing 23~25 g, were randomly assigned into 3 groups (n = 10 for each group) and placed in a transparent observation chamber for at least 20 min prior to the experiment. Mice were intraperitoneally administrated with vehicle or (−)-NRG-DM (30 or 50 mg/kg) 30 min before the injection of diluted mustard. Subsequently, 50 µL of diluted mustard oil solution (0.75% in 70% ethanol) was intracolonically administrated and the number of pain responses was counted for 30 min. In the present study, postures defined as pain-related behaviors were in agreement with previous descriptions: (1) licking of the abdomen, (2) stretching the abdomen, (3) squashing of lower abdomen against the floor, (4) abdominal wall retractions.

[2] = test system: TTX-resistant (TTX-R) currents in small-diameter DRG neurons; type: cell-based, mouse; conditions: 300 nM TTX
[3] = test system: delayed rectifier potassium currents (IK) in DRG neurons; assay: whole-cell patch-clamp, delayed rectifier potassium currents in DRG neurons; type: cell-based, mouse
Source text: (§1) The currents in mouse DRG neurons can be separated into IA and IK. They could be distinguished by applying voltage steps from a holding potential of −50 mV, at which IA was almost completely inactivated, while IK remained unchanged. Thereby, IA could be separated by subtracting IK from the total potassium currents. According to these electrophysiological characteristics, the effects of (−)-NRG-DM on potassium currents were examined (Figure 5A). […] Additionally, the effects of (−)-NRG-DM on the kinetics of the Kv channels were further characterized. The Kv currents were elicited by multiple 1500 ms depolarization pulses ranging from −80 mV to +90 mV in 10 mV increments from a holding potential of −80 mV. […] The values of V1/2 in the absence and presence of 10 µM (−)-NRG-DM were −6.43 ± 1.21 mV and −8.08 ± 2.02 mV, respectively (Figure 5D).
Dorsal root ganglia (DRG) were dissected from male C57BL/6 mice aged 4~6 weeks. The ganglia were first cut into small pieces and then digested at 37 °C for 20 min in DMEM containing 1 mg/mL collagenase type I and 0.25 mg/mL trypsin (Sigma-Aldrich). Subsequently, the digested small fragments were terminated and resuspended with DMEM/F12 growth medium (Gibco) supplemented with 10% fetal bovine serum (FBS) (Gibco). […]

[4] = test system: Kv channels in DRG neurons; assay: activation kinetics of Kv currents in DRG neurons; type: cell-based, mouse; conditions: in presence of 10 µM; control −6.43 ± 1.21 mV
Source text: as §1

[5] = target: Nav1.8 channel (Homo sapiens, UniProt Q9Y5Y9); assay: whole-cell patch-clamp, Nav1.8 stably expressed in HEK293 cells
Chain of Nav1.8 channel (Q9Y5Y9 whole entry): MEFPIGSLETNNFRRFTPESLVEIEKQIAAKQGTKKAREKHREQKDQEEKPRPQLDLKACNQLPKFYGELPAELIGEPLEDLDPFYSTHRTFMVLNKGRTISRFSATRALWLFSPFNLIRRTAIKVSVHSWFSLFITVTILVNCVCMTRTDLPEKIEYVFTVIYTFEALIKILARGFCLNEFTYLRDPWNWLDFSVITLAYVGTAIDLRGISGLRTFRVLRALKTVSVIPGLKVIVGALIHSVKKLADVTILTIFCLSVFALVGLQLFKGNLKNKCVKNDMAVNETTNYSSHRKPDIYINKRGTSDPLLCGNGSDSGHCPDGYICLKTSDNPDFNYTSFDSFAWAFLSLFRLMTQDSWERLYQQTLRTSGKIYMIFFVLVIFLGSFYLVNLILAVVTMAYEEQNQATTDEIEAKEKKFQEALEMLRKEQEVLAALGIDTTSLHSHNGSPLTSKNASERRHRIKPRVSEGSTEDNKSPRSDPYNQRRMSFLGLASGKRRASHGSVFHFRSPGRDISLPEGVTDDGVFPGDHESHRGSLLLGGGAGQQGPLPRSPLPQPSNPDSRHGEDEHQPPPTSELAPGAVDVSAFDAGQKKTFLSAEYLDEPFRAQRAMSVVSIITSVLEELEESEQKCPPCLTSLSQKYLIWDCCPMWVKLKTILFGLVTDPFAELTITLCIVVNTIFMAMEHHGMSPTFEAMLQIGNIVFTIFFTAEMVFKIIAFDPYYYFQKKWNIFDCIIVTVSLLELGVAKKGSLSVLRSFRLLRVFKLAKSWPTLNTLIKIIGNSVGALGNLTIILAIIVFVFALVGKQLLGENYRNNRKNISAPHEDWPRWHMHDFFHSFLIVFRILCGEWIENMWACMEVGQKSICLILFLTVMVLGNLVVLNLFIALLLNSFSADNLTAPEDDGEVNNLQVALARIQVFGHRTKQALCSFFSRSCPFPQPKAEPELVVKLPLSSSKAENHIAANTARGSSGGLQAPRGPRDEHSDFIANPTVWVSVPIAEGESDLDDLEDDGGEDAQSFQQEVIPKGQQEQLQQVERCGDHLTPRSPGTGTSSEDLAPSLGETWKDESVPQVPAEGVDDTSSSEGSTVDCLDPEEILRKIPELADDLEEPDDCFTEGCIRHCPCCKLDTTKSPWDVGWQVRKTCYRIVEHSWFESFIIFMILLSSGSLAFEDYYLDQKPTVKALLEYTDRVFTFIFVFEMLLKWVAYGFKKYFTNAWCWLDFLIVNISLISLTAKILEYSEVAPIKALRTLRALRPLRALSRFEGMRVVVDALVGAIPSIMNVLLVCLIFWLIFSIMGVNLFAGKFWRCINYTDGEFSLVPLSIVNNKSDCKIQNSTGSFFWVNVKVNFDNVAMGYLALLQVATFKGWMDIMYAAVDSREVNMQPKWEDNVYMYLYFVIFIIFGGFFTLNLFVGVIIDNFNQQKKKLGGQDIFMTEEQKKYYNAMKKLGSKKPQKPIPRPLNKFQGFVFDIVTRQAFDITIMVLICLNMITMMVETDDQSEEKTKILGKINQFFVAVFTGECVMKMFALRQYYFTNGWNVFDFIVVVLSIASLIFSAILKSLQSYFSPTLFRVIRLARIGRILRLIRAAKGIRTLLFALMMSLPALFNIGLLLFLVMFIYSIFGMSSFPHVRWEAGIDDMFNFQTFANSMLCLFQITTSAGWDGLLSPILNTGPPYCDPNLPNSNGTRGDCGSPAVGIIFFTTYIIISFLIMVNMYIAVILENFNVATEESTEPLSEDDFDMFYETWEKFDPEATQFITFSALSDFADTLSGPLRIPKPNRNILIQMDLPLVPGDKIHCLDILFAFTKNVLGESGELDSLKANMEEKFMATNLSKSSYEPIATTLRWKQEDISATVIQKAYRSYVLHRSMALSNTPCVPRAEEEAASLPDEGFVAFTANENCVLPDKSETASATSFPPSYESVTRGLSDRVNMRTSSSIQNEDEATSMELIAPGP

[6] = test system: motor coordination in mice; assay: rotarod test (motor impairment / neurotoxicity); type: in vivo, ICR mice
Method: To exclude possible non-specific muscle relaxant or sedative effects, the effects of (−)-NRG-DM on motor performance were evaluated in the rotarod test.
To determine the neurotoxicity effects of (−)-NRG-DM, the standardized rotarod test was conducted in male ICR mice weighted 20 ± 2 g. The mice were divided at random into 4 groups (n = 10 for each group). The mice were placed on a rotarod appliance (YLS-4C, Bio-will, Shanghai, China) with a rod of 3 cm diameter, rotating at a constant speed of 6 rpm. The day before the compound test, all mice were pre-trained and only the animals able to remain on the rod for at least 1 min every time in three consecutive trials (3 min) were retained. During the test, the mice were measured in the rotarod test 0.5 h and 1 h after intraperitoneal administration of (−)-NRG-DM. The animals unable to remain on the rod for 3 consecutive periods were considered motor coordination impaired.

[7] = test system: native Nav currents in DRG neurons; assay: whole-cell patch-clamp, native sodium currents in DRG neurons; type: cell-based, mouse
Method: A reduction in amplitudes of action potentials manifested that (−)-NRG-DM may inhibit native sodium currents, which are mainly involved in the rising phase of an action potential. To record native sodium currents in acutely isolated DRG neurons, a 50 ms test pulse depolarized to −20 mV from a holding potential of −90 mV was applied. […] To understand how (−)-NRG-DM inhibited Nav channels, the effects of 30 µM compound (−)-NRG-DM on Nav channel kinetics were further characterized. […] In contrast to the lack of effect on the Nav channel activation, (−)-NRG-DM caused a depolarization shift of the steady-state inactivation. The V1/2 value was shifted from −65.72 ± 1.74 mV to −55.34 ± 2.14 mV by 30 µM (−)-NRG-DM (Figure 6G).
Dorsal root ganglia (DRG) were dissected from male C57BL/6 mice aged 4~6 weeks. The ganglia were first cut into small pieces and then digested at 37 °C for 20 min in DMEM containing 1 mg/mL collagenase type I and 0.25 mg/mL trypsin (Sigma-Aldrich). Subsequently, the digested small fragments were terminated and resuspended with DMEM/F12 growth medium (Gibco) supplemented with 10% fetal bovine serum (FBS) (Gibco). Finally, the dissociated DRG neurons were seeded onto 24-well plates with poly-L-lysine-coated coverslips and placed in a 37 °C, 5% CO2 incubator for at least 1 h before electrophysiological experiments.

[8] = target: Nav1.7 channel (Homo sapiens, UniProt Q15858); assay: whole-cell patch-clamp, Nav1.7 stably expressed in HEK293 cells
Chain of Nav1.7 channel (Q15858 whole entry): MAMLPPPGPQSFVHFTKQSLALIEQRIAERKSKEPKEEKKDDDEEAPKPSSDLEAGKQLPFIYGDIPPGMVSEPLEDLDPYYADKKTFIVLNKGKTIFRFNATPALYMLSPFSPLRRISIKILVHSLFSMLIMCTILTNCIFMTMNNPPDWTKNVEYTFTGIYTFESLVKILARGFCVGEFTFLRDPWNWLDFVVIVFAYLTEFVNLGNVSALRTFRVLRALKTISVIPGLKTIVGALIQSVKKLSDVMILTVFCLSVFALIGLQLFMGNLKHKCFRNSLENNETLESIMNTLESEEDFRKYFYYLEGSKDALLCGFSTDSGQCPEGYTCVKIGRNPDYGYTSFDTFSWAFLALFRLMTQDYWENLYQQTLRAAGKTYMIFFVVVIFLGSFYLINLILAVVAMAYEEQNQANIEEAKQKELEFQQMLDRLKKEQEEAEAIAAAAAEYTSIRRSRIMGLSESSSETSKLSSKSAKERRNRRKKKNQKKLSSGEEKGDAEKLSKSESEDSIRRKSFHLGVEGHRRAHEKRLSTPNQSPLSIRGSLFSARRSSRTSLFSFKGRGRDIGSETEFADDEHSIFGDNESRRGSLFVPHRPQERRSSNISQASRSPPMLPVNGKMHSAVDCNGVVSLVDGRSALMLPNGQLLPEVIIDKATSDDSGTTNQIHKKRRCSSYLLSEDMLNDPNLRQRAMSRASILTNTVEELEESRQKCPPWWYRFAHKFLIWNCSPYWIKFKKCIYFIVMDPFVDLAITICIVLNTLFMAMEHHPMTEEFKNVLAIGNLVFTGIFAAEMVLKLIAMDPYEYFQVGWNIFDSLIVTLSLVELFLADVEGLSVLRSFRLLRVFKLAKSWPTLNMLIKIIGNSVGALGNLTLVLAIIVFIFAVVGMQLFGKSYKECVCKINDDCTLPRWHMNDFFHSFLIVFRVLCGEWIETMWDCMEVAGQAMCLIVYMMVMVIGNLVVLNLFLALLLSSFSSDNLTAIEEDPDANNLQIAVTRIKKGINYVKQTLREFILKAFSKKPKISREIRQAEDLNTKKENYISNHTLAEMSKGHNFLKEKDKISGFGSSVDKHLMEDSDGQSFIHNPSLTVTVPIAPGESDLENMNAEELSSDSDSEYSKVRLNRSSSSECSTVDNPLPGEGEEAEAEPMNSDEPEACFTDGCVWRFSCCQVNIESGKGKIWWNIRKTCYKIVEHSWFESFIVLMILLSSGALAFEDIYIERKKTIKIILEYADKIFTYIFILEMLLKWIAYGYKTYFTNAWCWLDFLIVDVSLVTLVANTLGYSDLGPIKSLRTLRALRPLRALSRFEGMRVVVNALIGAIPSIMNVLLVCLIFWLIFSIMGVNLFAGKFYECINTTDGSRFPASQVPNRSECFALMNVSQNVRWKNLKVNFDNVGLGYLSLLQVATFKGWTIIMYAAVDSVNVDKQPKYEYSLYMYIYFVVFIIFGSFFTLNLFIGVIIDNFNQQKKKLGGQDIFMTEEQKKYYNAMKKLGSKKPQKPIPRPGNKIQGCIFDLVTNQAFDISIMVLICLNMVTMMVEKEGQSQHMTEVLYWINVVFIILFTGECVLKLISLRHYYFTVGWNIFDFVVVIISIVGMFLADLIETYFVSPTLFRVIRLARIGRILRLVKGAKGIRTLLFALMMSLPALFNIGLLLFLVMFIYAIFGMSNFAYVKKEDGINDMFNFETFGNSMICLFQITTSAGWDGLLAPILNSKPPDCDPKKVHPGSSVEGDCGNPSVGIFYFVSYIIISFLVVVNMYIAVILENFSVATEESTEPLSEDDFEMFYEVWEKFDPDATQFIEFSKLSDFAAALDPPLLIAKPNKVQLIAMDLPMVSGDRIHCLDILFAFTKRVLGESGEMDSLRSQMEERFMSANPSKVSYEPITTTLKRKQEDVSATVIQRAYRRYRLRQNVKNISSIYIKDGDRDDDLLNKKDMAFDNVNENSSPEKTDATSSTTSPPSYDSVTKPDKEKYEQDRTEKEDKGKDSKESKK

[9] = Mus musculus, DRG neuron, n = 5

In the case of COc1ccc([C@H]2CC(=O)c3c(O)cc(OC)cc3O2)cc1 [(−)-NRG-DM, (−)-naringenin 4′,7-dimethyl ether], the “reduction of writhing number” value ([1]; 30 mg/kg i.p.) is reported as “approximately 60%”, the “reduction of writhing number” value ([1]; 50 mg/kg i.p.) is reported as roughly 80% and the “V1/2 of activation, TTX-R currents” value ([2]; 30 μM, control −16.82 ± 0.72 mV) is reported as −20.14 ± 0.87 mV. For the same molecule, the “V1/2 of steady-state inactivation, TTX-R currents” value ([2]; 30 µM, control −39.43 ± 0.66 mV) was −49.99 ± 0.67 mV, the IC50 [3, 9] was 5.1 ± 0.04 µM and the “reduction in IK currents” value ([3]; at plasma concentration (around 7 µM)) was “around 58%”. The “V1/2 of activation of Kv currents” value [4] was −8.08 ± 2.02 mV, the inhibitory ratio ([5]; 30 µM) was 44 ± 3% and the IDrug/IControl ([5]; 30 μM, HEK293) was 0.56 ± 0.03. For the same molecule, the “V1/2 of steady-state inactivation of Nav1.8” value ([5]; 30 µM, control −48.58 ± 0.67 mV) was −53.37 ± 0.70 mV, the “Fall nFall /nTest” value ([6]; 100 mg/kg i.p., 0.5 h) was 0/10 and the “Motor Impairment (%)” value ([6]; 100 mg/kg i.p., 0.5 h) was 0%. The “Fall nFall /nTest” value ([6]; 100 mg/kg i.p., 1 h) was 0/10, the “Motor Impairment (%)” value ([6]; 100 mg/kg i.p., 1 h) was 0% and the “ability to remain on the rotating rod” value ([6]; 100 mg/kg, 200 mg/kg, or 400 mg/kg i.p.) was “no significant effects”. For the same molecule, the “Fall nFall /nTest” value ([6]; 200 mg/kg i.p., 0.5 h) was 1/10, the “Motor Impairment (%)” value ([6]; 200 mg/kg i.p., 0.5 h) was 10% and the “Fall nFall /nTest” value ([6]; 200 mg/kg i.p., 1 h) was 0/10. For the same molecule, the “Motor Impairment (%)” value ([6]; 200 mg/kg i.p., 1 h) was 0%, the “Fall nFall /nTest” value ([6]; 400 mg/kg i.p., 0.5 h) was 0/10 and the “Motor Impairment (%)” value ([6]; 400 mg/kg i.p., 0.5 h) was 0%. For the same molecule, the “Fall nFall /nTest” value ([6]; 400 mg/kg i.p., 1 h) was 0/10, the “Motor Impairment (%)” value ([6]; 400 mg/kg i.p., 1 h) was 0% and the signs of toxicity ([6]; 100, 200, 400 mg/kg i.p., during rotarod test (0.5 and 1 h) and 24 h after administration) was “no sign of toxicity”. The “V1/2 of activation, total Nav currents” value ([7]; 30 μM, control −15.34 ± 0.58 mV) was −15.23 ± 0.56 mV, the “V1/2 of steady-state inactivation, total Nav currents” value ([7]; 30 µM, control −65.72 ± 1.74 mV) was −55.34 ± 2.14 mV and the IC50 [7, 9] was 34.78 ± 0.14 µM. For the same molecule, the “reduction in INa” value ([7]; at plasma concentration from pharmacokinetic study (around 7 µM)) was “around 28%”, the inhibitory ratio ([8]; 30 µM) was 39 ± 5% and the IDrug/IControl ([8]; 30 μM, HEK293) was 0.61 ± 0.05. The “selectivity Nav1.7 vs Nav1.8” value ([8]; 30 μM, no significant difference between Nav1.7 and Nav1.8) was “non-selective Nav channel inhibitor”.
